#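 Grown in 96-well plates, cells were treated for 48 hours with each compound at five concentrations. Insufficient inhibition: endpoint recorded as highest concentration tested. TGI is the concentration that stops growth completely.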
# Key:
# Assay in all cases: growth of human tumour cells (NCI), 48 h
# UACC-257 melanoma = system: UACC-257 melanoma
# NCI/ADR-RES ovarian = system: NCI/ADR-RES ovarian
# CAKI-1 renal = system: CAKI-1 renal
# HOP-62 NSCLC = system: HOP-62 NSCLC
# HOP-18 NSCLC = system: HOP-18 NSCLC
# T-47D breast = system: T-47D breast
# DLD-1 colon = system: DLD-1 colon
# A498 renal = system: A498 renal
# A549 NSCLC = system: A549 NSCLC
# KM12 colon = system: KM12 colon
# LOX IMVI melanoma = system: LOX IMVI melanoma
# SK-OV-3 ovarian = system: SK-OV-3 ovarian
# UO-31 renal = system: UO-31 renal
# MCF7 breast = system: MCF7 breast
# DMS 273 small cell lung = system: DMS 273 small cell lung
# MALME-3M melanoma = system: MALME-3M melanoma
# U251 CNS = system: U251 CNS
# IGROV1 ovarian = system: IGROV1 ovarian
# RXF 393 renal = system: RXF 393 renal
# SN12C renal = system: SN12C renal
# HS 578T breast = system: HS 578T breast
# MDA-MB-231 breast = system: MDA-MB-231 breast
# NCI-H460 lung = system: NCI-H460 lung
# M14 melanoma = system: M14 melanoma
# MDA-N = system: MDA-N
# UACC-62 melanoma = system: UACC-62 melanoma
# K-562 leukemia = system: K-562 leukemia
# NCI-H226 lung = system: NCI-H226 lung
# ACHN renal = system: ACHN renal
# OVCAR-4 ovarian = system: OVCAR-4 ovarian
# SF-295 CNS = system: SF-295 CNS
# M19-MEL melanoma = system: M19-MEL melanoma
# SF-539 CNS = system: SF-539 CNS
# HL-60(TB) leukemia = system: HL-60(TB) leukemia
# HOP-92 NSCLC = system: HOP-92 NSCLC
# COLO 205 colon = system: COLO 205 colon
# SNB-75 CNS = system: SNB-75 CNS
# SR leukemia = system: SR leukemia
# OVCAR-3 ovarian = system: OVCAR-3 ovarian
# SK-MEL-5 melanoma = system: SK-MEL-5 melanoma
# HCT-15 colon = system: HCT-15 colon
# NCI-H23 lung = system: NCI-H23 lung
# MDA-MB-435 = system: MDA-MB-435
# MOLT-4 leukemia = system: MOLT-4 leukemia
# RPMI-8226 leukemia = system: RPMI-8226 leukemia
# EKVX NSCLC = system: EKVX NSCLC
# SNB-78 CNS = system: SNB-78 CNS
# KM20L2 colon = system: KM20L2 colon
# LXFL 529 NSCLC = system: LXFL 529 NSCLC
# CCRF-CEM leukemia = system: CCRF-CEM leukemia
# SF-268 CNS = system: SF-268 CNS
# BT-549 breast = system: BT-549 breast
# OVCAR-5 ovarian = system: OVCAR-5 ovarian
# HCC-2998 colon = system: HCC-2998 colon
# DMS 114 small cell lung = system: DMS 114 small cell lung
# XF 498 CNS = system: XF 498 CNS
# SW-620 colon = system: SW-620 colon
# PC-3 prostate = system: PC-3 prostate
# HT29 colon = system: HT29 colon
# SNB-19 CNS = system: SNB-19 CNS
# OVCAR-8 ovarian = system: OVCAR-8 ovarian
# SK-MEL-2 melanoma = system: SK-MEL-2 melanoma
# NCI-H522 lung = system: NCI-H522 lung
# DU-145 prostate = system: DU-145 prostate
# 786-0 renal = system: 786-0 renal
# HCT-116 colon = system: HCT-116 colon
# SK-MEL-28 melanoma = system: SK-MEL-28 melanoma
# TK-10 renal = system: TK-10 renal
# RXF-631 renal = system: RXF-631 renal
smiles,measurement,setting,value
O=C(CCN1CCCCC1)N1CCc2c([nH]c3ccccc23)C1c1cccnc1 (centres undefined),TGI,UACC-257 melanoma,34.7 µM
same,TGI,NCI/ADR-RES ovarian,> 100 µM
same,TGI,CAKI-1 renal,> 100 µM
same,TGI,HOP-62 NSCLC,> 100 µM
same,TGI,HOP-18 NSCLC,> 100 µM
same,TGI,T-47D breast,> 100 µM
same,TGI,DLD-1 colon,> 100 µM
same,TGI,A498 renal,> 100 µM
same,TGI,A549 NSCLC,> 100 µM
same,TGI,KM12 colon,> 100 µM
same,TGI,LOX IMVI melanoma,> 100 µM
same,TGI,SK-OV-3 ovarian,> 100 µM
same,TGI,UO-31 renal,71.1 µM
same,TGI,MCF7 breast,> 100 µM
same,TGI,DMS 273 small cell lung,> 100 µM
same,TGI,MALME-3M melanoma,41.6 µM
same,TGI,U251 CNS,> 100 µM
same,TGI,IGROV1 ovarian,> 100 µM
same,TGI,RXF 393 renal,81.5 µM
same,TGI,SN12C renal,> 100 µM
same,TGI,HS 578T breast,> 100 µM
same,TGI,MDA-MB-231 breast,> 74.2 µM
same,TGI,NCI-H460 lung,> 100 µM
same,TGI,M14 melanoma,42.2 µM
same,TGI,MDA-N,75 µM
same,TGI,UACC-62 melanoma,42.2 µM
same,TGI,K-562 leukemia,75.1 µM
same,TGI,NCI-H226 lung,> 100 µM
same,TGI,ACHN renal,> 100 µM
same,TGI,OVCAR-4 ovarian,> 100 µM
same,TGI,SF-295 CNS,> 100 µM
same,TGI,M19-MEL melanoma,46.1 µM
same,TGI,SF-539 CNS,> 85.7 µM
same,TGI,HL-60(TB) leukemia,> 93.2 µM
same,TGI,HOP-92 NSCLC,66 µM
same,TGI,COLO 205 colon,44.8 µM
same,TGI,SNB-75 CNS,> 92.1 µM
same,TGI,SR leukemia,> 100 µM
same,TGI,OVCAR-3 ovarian,> 100 µM
same,TGI,SK-MEL-5 melanoma,41.3 µM
same,TGI,HCT-15 colon,> 100 µM
same,TGI,NCI-H23 lung,> 100 µM
same,TGI,MDA-MB-435,75.1 µM
same,TGI,MOLT-4 leukemia,> 100 µM
same,TGI,RPMI-8226 leukemia,> 100 µM
same,TGI,EKVX NSCLC,98.2 µM
same,TGI,SNB-78 CNS,> 100 µM
same,TGI,KM20L2 colon,> 70.8 µM
same,TGI,LXFL 529 NSCLC,38.1 µM
same,TGI,CCRF-CEM leukemia,99 µM
same,TGI,SF-268 CNS,> 87.9 µM
same,TGI,BT-549 breast,> 86.2 µM
same,TGI,OVCAR-5 ovarian,> 92.9 µM
same,TGI,HCC-2998 colon,54.8 µM
same,TGI,DMS 114 small cell lung,> 69.7 µM
same,TGI,XF 498 CNS,57.3 µM
same,TGI,SW-620 colon,> 100 µM
same,TGI,PC-3 prostate,> 100 µM
same,TGI,HT29 colon,75.4 µM
same,TGI,SNB-19 CNS,> 100 µM
same,TGI,OVCAR-8 ovarian,> 100 µM
same,TGI,SK-MEL-2 melanoma,36.9 µM
same,TGI,NCI-H522 lung,79.7 µM
same,TGI,DU-145 prostate,> 100 µM
same,TGI,786-0 renal,82.9 µM
same,TGI,HCT-116 colon,> 100 µM
same,TGI,SK-MEL-28 melanoma,37.2 µM
same,TGI,TK-10 renal,> 100 µM
same,TGI,RXF-631 renal,> 80.7 µM

# From PubChem BioAssay (NCI)
